This is an account of results in EPA's ToxValDB 9.5 (doi:10.2903/j.efsa.2012.2927).

Usually NOAEL stands for the highest tested level that showed no adverse finding.

Structures are written as SMILES. Counter-ions that a name gives are not always drawn.

The subject of this series is Rattus norvegicus. The settings on record: oral, no effects.
[1] abbreviates: chronic, duration: 17 weeks, gavage.
Setting [2] is: subchronic, duration: 90 days, diet.
The mark [3] stands for this setting: subchronic, duration: 90 days, drinking water.

Turning to `CCC(CC)C(=O)O` [2-Ethylbutyric acid], the no-observed-adverse-effect level (NOAEL) by setting is: under setting [1], over 1000 mg/kg-day; under setting [2], over 2500 mg/kg-day; under setting [3], over 1450 mg/kg-day; (subchronic, duration: 90 days) over 219 mg/kg-day.

Consider `CC(C)CO` [2-Methyl-1-propanol], for which the NOAEL is over 1000 mg/kg-day under setting [1]; over 2500 mg/kg-day under setting [2]; over 1450 mg/kg-day under setting [3]; over 219 mg/kg-day (subchronic, duration: 90 days).

For `CCC(C)C=O` (stereo unspecified) [2-Methylbutanal], the NOAEL runs as follows: under setting [1], over 1000 mg/kg-day; under setting [2], over 2500 mg/kg-day; under setting [3], over 1450 mg/kg-day; (subchronic, duration: 90 days) over 219 mg/kg-day.

Take `CCC(C)COC(C)=O` (stereo unspecified) [2-Methylbutyl acetate]: the NOAEL was over 1000 mg/kg-day under setting [1]; over 2500 mg/kg-day under setting [2]; over 1450 mg/kg-day under setting [3]; over 219 mg/kg-day (subchronic, duration: 90 days).

Take `CCC(C)COC(=O)CC(C)C` (stereo unspecified) [2-Methylbutyl isovalerate]: the NOAEL was over 1000 mg/kg-day under setting [1]; over 2500 mg/kg-day under setting [2]; over 1450 mg/kg-day under setting [3]; over 219 mg/kg-day (subchronic, duration: 90 days).

`CCCC(C)C(=O)O` (stereo unspecified) [2-Methylpentanoic acid]: the NOAEL runs as follows: under setting [1], over 1000 mg/kg-day; under setting [2], over 2500 mg/kg-day; under setting [3], over 1450 mg/kg-day; (subchronic, duration: 90 days) over 219 mg/kg-day.

Take `CC(C)C(=O)O` [2-Methylpropanoic acid]: the NOAEL runs as follows: under setting [1], over 1000 mg/kg-day; under setting [2], over 2500 mg/kg-day; under setting [3], over 1450 mg/kg-day; (subchronic, duration: 90 days) over 219 mg/kg-day.

`CC(C)CC=O` [3-Methylbutanal] came in with a no observed adverse effect level (NOAEL) under setting [1] of over 1000 mg/kg-day; an NOAEL under setting [2] of over 2500 mg/kg-day; an NOAEL under setting [3] of over 1450 mg/kg-day; an NOAEL (subchronic, duration: 90 days) of over 219 mg/kg-day.

Regarding `CC(=O)OCCC(C)C` [3-Methylbutyl acetate], the NOAEL was over 1000 mg/kg-day under setting [1]; over 2500 mg/kg-day under setting [2]; over 1450 mg/kg-day under setting [3]; over 219 mg/kg-day (subchronic, duration: 90 days).

In turn, `CCC(=O)OCCC(C)C` [3-Methylbutyl propanoate] returned an NOAEL under setting [1] of over 1000 mg/kg-day; a no observed adverse effect level (NOAEL) under setting [2] of over 2500 mg/kg-day; an NOAEL under setting [3] of over 1450 mg/kg-day; an NOAEL (subchronic, duration: 90 days) of over 219 mg/kg-day.

Turning to `CCC(C)C(=O)OCCC(C)C` (stereo unspecified) [Butanoic acid, 2-methyl-, 3-methylbutyl ester], the NOAEL reads like this: under setting [1], over 1000 mg/kg-day; under setting [2], over 2500 mg/kg-day; under setting [3], over 1450 mg/kg-day; (subchronic, duration: 90 days) over 219 mg/kg-day.

Consider `CCCC(=O)OCC(C)CC` (stereo unspecified) [Butanoic acid, 2-methylbutyl ester], for which the no observed adverse effect level (NOAEL) is, setting by setting: under setting [1], over 1000 mg/kg-day; under setting [2], over 2500 mg/kg-day; under setting [3], over 1450 mg/kg-day; (subchronic, duration: 90 days) over 219 mg/kg-day.

With `CC(C)COC(=O)CC(C)C` [Butanoic acid, 3-methyl-, 2-methylpropyl ester], the NOAEL is over 1000 mg/kg-day under setting [1]; over 2500 mg/kg-day under setting [2]; over 1450 mg/kg-day under setting [3]; over 219 mg/kg-day (subchronic, duration: 90 days).

Turning to `CCCC(=O)OCC(COC(=O)CCC)OC(=O)CCC` [Glycerol tributyrate], the NOAEL is over 1000 mg/kg-day under setting [1]; over 2500 mg/kg-day under setting [2]; over 1450 mg/kg-day under setting [3]; over 219 mg/kg-day (subchronic, duration: 90 days).

For `CCCCCC(C)C(=O)O` (stereo unspecified) [Heptanoic acid, 2-methyl-], the NOAEL is, setting by setting: under setting [1], over 1000 mg/kg-day; under setting [2], over 2500 mg/kg-day; under setting [3], over 1450 mg/kg-day; (subchronic, duration: 90 days) over 219 mg/kg-day.

For the molecule `CC(C)CCOC=O` [Isoamyl formate], the no observed adverse effect level (NOAEL) was over 1000 mg/kg-day under setting [1]; over 2500 mg/kg-day under setting [2]; over 1450 mg/kg-day under setting [3]; over 219 mg/kg-day (subchronic, duration: 90 days).

As for `CC(=O)OCC(C)C` [Isobutyl acetate], the NOAEL is over 1000 mg/kg-day under setting [1]; over 2500 mg/kg-day under setting [2]; over 1450 mg/kg-day under setting [3]; over 219 mg/kg-day (subchronic, duration: 90 days).

In turn, `CCCC(=O)OCC(C)C` [Isobutyl butyrate] registered an NOAEL under setting [1] of over 1000 mg/kg-day; a no observed adverse effect level (NOAEL) under setting [2] of over 2500 mg/kg-day; an NOAEL under setting [3] of over 1450 mg/kg-day; an NOAEL (subchronic, duration: 90 days) of over 219 mg/kg-day.

With `CC(C)COC(=O)C(C)C` [Isobutyl isobutyrate], the NOAEL reads like this: under setting [1], over 1000 mg/kg-day; under setting [2], over 2500 mg/kg-day; under setting [3], over 1450 mg/kg-day; (subchronic, duration: 90 days) over 219 mg/kg-day.

In turn, `CC(C)CCO` [Isopentyl alcohol] showed a no-observed-adverse-effect level (NOAEL) under setting [1] of over 1000 mg/kg-day; a no-observed-adverse-effect level (NOAEL) under setting [2] of over 2500 mg/kg-day; an NOAEL under setting [3] of over 1450 mg/kg-day; an NOAEL (subchronic, duration: 90 days) of over 219 mg/kg-day.

Take `CCCC(=O)OCCC(C)C` [Isopentyl butyrate]: the NOAEL is over 1000 mg/kg-day under setting [1]; over 2500 mg/kg-day under setting [2]; over 1450 mg/kg-day under setting [3]; over 219 mg/kg-day (subchronic, duration: 90 days).

In the case of `CC(C)CCOC(=O)C(C)C` [Isopentyl isobutyrate], the NOAEL reads like this: under setting [1], over 1000 mg/kg-day; under setting [2], over 2500 mg/kg-day; under setting [3], over 1450 mg/kg-day; (subchronic, duration: 90 days) over 219 mg/kg-day.

With `CC(C)CC(=O)O` [Isovaleric acid], the NOAEL by setting is: under setting [1], over 1000 mg/kg-day; under setting [2], over 2500 mg/kg-day; under setting [3], over 1450 mg/kg-day; (subchronic, duration: 90 days) over 219 mg/kg-day.

In the case of `CCCCC(C)CCC(=O)O` (stereo unspecified) [Octanoic acid, 4-methyl-], the NOAEL under setting [1] is over 1000 mg/kg-day; the NOAEL under setting [2] was over 2500 mg/kg-day; the NOAEL under setting [3] was over 1450 mg/kg-day; the NOAEL (subchronic, duration: 90 days) is over 219 mg/kg-day.
